Assay results published in PubChem BioAssay (NCI).
“And” between values parts separate entries of the source, which are not always exact repeats. Equal values may be shown once.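 Method: 48-hour compound exposure of cells in 96-well plates, five concentrations, linear interpolation of endpoints. The concentration for 50% growth inhibition is given as GI50. TGI: concentration producing complete growth inhibition.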

Key:
Assay in all cases: NCI-60 cell line screen, 48 h
[1] = tested on: HL-60(TB) leukemia
[2] = tested on: MCF7 breast
[3] = tested on: K-562 leukemia
[4] = tested on: HCT-15 colon
[5] = tested on: CAKI-1 renal
[6] = tested on: SF-268 CNS
[7] = tested on: A498 renal
[8] = tested on: SN12C renal
[9] = tested on: HCT-116 colon
[10] = tested on: SR leukemia

SMILES: COc1ccc2c(c1)c(-c1ccc(-c3cn(C)c4ccc(OC)cc34)o1)cn2C
- GI50 [1]: 1.98 µM
- TGI [1]: 5.2 µM
- GI50 [2]: 17.3 µM
- TGI [2]: > 100 µM
- GI50 [3]: 2.86 µM
- TGI [3]: > 100 µM
- GI50 [4]: 4.22 µM
- TGI [4]: 29.7 µM
- GI50 [5]: 17.1 µM
- TGI [5]: > 100 µM
- GI50 [6]: 9.24 µM
- TGI [6]: > 100 µM
- GI50 [7]: > 100 µM
- TGI [7]: > 100 µM
- GI50 [8]: 21.6 µM
- TGI [8]: > 100 µM
- GI50 [9]: 88 µM
- TGI [9]: > 100 µM

SMILES: CCOC(=O)c1csc(-c2nc(CCNC(=O)c3ccccc3)sc2Cl)n1
- TGI [1]: > 100 µM
- TGI [2]: > 100 µM
- TGI [3]: > 100 µM
- TGI [4]: > 100 µM
- TGI [10]: > 100 µM
- TGI [6]: > 100 µM
- TGI [7]: > 100 µM
- TGI [8]: > 100 µM
- TGI [9]: > 100 µM

SMILES: CCC1(N)C(=O)OCc2c1cc1n(c2=O)Cc2cc3ccccc3nc2-1 (centres undefined)
- GI50 [1]: 4.44 µM
- GI50 [2]: 2.82 µM
- TGI [2]: > 100 µM
- GI50 [3]: 5.36 µM
- TGI [3]: > 100 µM
- GI50 [4]: 19.7 µM
- TGI [4]: > 100 µM
- GI50 [5]: 3.26 µM
- TGI [5]: > 52.2 µM and 45.9 µM
- TGI [6]: > 100 µM
- GI50 [7]: 10.6 µM
- TGI [7]: 34.4 µM and 46.2 µM
- GI50 [8]: 6.27 µM
- TGI [8]: > 100 µM
- GI50 [9]: 6.51 µM
- TGI [9]: 23.4 µM and > 100 µM

SMILES: CN(C)C1C(=O)C(C(N)=O)=C(O)C2(O)C(=O)C3=C(O)c4c(O)cccc4C(C)(O)C3CC12 (centres undefined)
- GI50 [1]: 24.5 µM and 82.9 µM
- TGI [1]: 53.2 µM and > 100 µM
- TGI [2]: > 100 µM
- GI50 [3]: 23.2 µM and > 100 µM
- TGI [3]: 48.5 µM and > 100 µM
- TGI [4]: > 100 µM
- TGI [5]: > 100 µM
- GI50 [10]: 26.4 µM and > 100 µM
- TGI [10]: 55.1 µM and > 100 µM
- TGI [7]: 95.5 µM and > 100 µM
- GI50 [8]: 18.4 µM and > 100 µM
- TGI [8]: 32.5 µM and > 100 µM
- GI50 [9]: 23.7 µM and > 100 µM
- TGI [9]: 39.2 µM and > 100 µM

SMILES: CC(C)C1=CC23CCC4C(C)(C(=O)O)CCCC4(C)C2CC1C1C(=O)N(c2cccc(N4C(=O)C5C6CC7C8(C)CCCC(C)(C(=O)O)C8CCC7(C=C6C(C)C)C5C4=O)c2)C(=O)C13 (centres undefined)
- TGI [1]: 30.7 µM
- TGI [2]: 16 µM
- TGI [3]: 96.1 µM
- TGI [4]: 26.9 µM
- TGI [10]: 45 µM
- TGI [6]: 27.8 µM
- TGI [7]: 26.7 µM
- TGI [8]: 27.1 µM
- TGI [9]: 21.3 µM

SMILES: O=c1c(-c2nc3ccccc3[nH]2)cc2ccccc2n1Cc1cn(Cc2ccccc2Cl)nn1
- GI50 [1]: 6.22 µM
- TGI [1]: > 100 µM
- GI50 [2]: 1.78 µM
- TGI [2]: 3.77 µM
- GI50 [3]: 3.33 µM
- TGI [3]: 12.9 µM
- GI50 [5]: 1.93 µM
- TGI [5]: 4.74 µM
- GI50 [10]: 2.41 µM
- TGI [10]: 8.64 µM
- GI50 [6]: 2.4 µM
- TGI [6]: 8.74 µM
- GI50 [8]: 1.87 µM
- TGI [8]: 3.75 µM

SMILES: Cc1ccc(-n2c3c(c4c(CN)c(O)ccc42)CCc2ccccc2C3=O)cc1
- GI50 [2]: 17.3 µM
- TGI [2]: > 100 µM
- GI50 [4]: 15.9 µM
- TGI [4]: 30.9 µM
- GI50 [5]: 13 µM
- TGI [5]: 26.6 µM
- GI50 [10]: 2.33 µM
- TGI [10]: 5.38 µM
- GI50 [6]: 9.06 µM
- TGI [6]: 28.3 µM
- GI50 [7]: 4.17 µM
- TGI [7]: 16.8 µM
- GI50 [8]: 14.2 µM
- TGI [8]: 28.2 µM
- GI50 [9]: 9.24 µM
- TGI [9]: 21.4 µM

SMILES: C#CCN(Cc1nc2cc(C(F)(F)F)ccc2nc1-c1ccccc1)c1ccc(F)cc1
- GI50 [1]: 21.8 µM
- TGI [1]: > 100 µM
- GI50 [2]: 23.2 µM
- TGI [2]: > 100 µM
- GI50 [3]: 19.5 µM
- TGI [3]: > 100 µM
- GI50 [4]: 29.5 µM
- TGI [4]: > 100 µM
- GI50 [5]: 62.2 µM
- TGI [5]: 92.2 µM
- GI50 [6]: 37.9 µM
- TGI [6]: > 100 µM
- GI50 [7]: 38 µM
- TGI [7]: 92.8 µM
- GI50 [8]: 30.8 µM
- TGI [8]: 96 µM
- GI50 [9]: 20.8 µM
- TGI [9]: > 100 µM

SMILES: CN1CCN(c2ccc(-c3cccc(CN4CCOCC4)c3)cc2NC(=O)c2c[nH]c(=O)cc2C(F)(F)F)CC1
- GI50 [1]: 36.4 µM
- TGI [1]: > 100 µM
- GI50 [2]: 33.1 µM
- TGI [2]: > 100 µM
- GI50 [3]: 22.1 µM
- TGI [3]: 51 µM
- GI50 [4]: 50.3 µM
- TGI [4]: > 100 µM
- GI50 [10]: 26.4 µM
- TGI [10]: 63.7 µM
- GI50 [6]: 62.5 µM
- TGI [6]: > 100 µM
- GI50 [8]: > 100 µM
- TGI [8]: > 100 µM
- GI50 [9]: 16.4 µM
- TGI [9]: > 100 µM

SMILES: O=C1c2ccccc2-c2c1c1ccc([N+](=O)[O-])cc1c(=O)n2CCCn1ccnc1
- GI50 [1]: 1.09 µM
- TGI [1]: 3.84 µM
- GI50 [2]: < 0.018 µM
- TGI [2]: 4.24 µM
- GI50 [3]: 0.886 µM
- TGI [3]: 5.16 µM
- GI50 [4]: 1.06 µM
- TGI [4]: 3.15 µM
- GI50 [5]: 0.172 µM
- TGI [5]: 0.807 µM
- TGI [6]: 15.1 µM
- GI50 [7]: 0.525 µM
- TGI [7]: 8.88 µM
- GI50 [8]: 0.0153 µM
- TGI [8]: 0.0378 µM
- GI50 [9]: 0.0763 µM
- TGI [9]: 0.652 µM

SMILES: Cc1ccc2c(c1)-c1oc(=O)c(-c3cc4ccccc4oc3=O)cc1C(O)O2 (centres undefined)
- GI50 [2]: 31.7 µM
- TGI [2]: > 100 µM
- GI50 [3]: 26.2 µM
- TGI [3]: 76.6 µM
- GI50 [4]: 23.9 µM
- TGI [4]: 48.8 µM
- GI50 [5]: 20.5 µM
- TGI [5]: 46.7 µM
- GI50 [10]: 22.9 µM
- TGI [10]: 82.8 µM
- GI50 [6]: 34.2 µM
- TGI [6]: > 100 µM
- GI50 [7]: 16.2 µM
- TGI [7]: 30.3 µM
- GI50 [8]: 19.7 µM
- TGI [8]: 45 µM
- GI50 [9]: 18 µM
- TGI [9]: 33 µM

SMILES: CNC(=S)N(C1CCCCC1)C1CCCCC1
- TGI [1]: > 100 µM
- TGI [2]: > 100 µM
- TGI [3]: > 100 µM
- TGI [4]: > 100 µM
- TGI [5]: > 100 µM
- TGI [10]: > 100 µM
- TGI [6]: > 100 µM
- TGI [8]: > 100 µM
- TGI [9]: > 100 µM
